One assay concerns T1, homomeric Kv7.1.
T1 construct: expressed in transfected cells; host or cells: Xenopus oocytes, cRNA injected
The assay can be described thus: TEVC, homomeric Kv7.1 channels in oocytes. Type of assay: cell-based, human. The procedure: Figure 1 AC-1 inhibits Kv7.1 channels only in the presence of KCNE1. (a) Structure of adamantane compound AC-1. (b) Concentration-response relationship for inhibition of Kv7.1/KCNE channel currents by AC-1. Kv7.1/KCNE1 channel currents were activated by repetitive 7 s pulses to +40 mV applied from a holding potential of −80 mV. Inhibition was determined as percent change in current amplitude at the end of the depolarizing test pulse to +40 mV. Data were fitted (smooth curve) to the Hill equation (n=5–70,±s.e.m.). (c) The inhibitory effect of different AC-1 concentrations on Kv7.1/KCNE1 channels was determined by repetitive 7 s pulses to +40 mV applied from a holding potential of −80 mV. […] Inhibition of current was determined as described above and plotted against the amount (in ng) of cRNA injected into individual oocytes. […]
(§1) Template cDNAs (wildtype or mutant human Kv7.1 in pSGEM, wildtype human KCNE1 in pSP64) were linearized with a suitable restriction enzyme (Nhe I/pSGEM, Eco RI/pSP64). cRNA was synthesized from 1 μg linearized cDNA by in vitro transcription (mMessage mMachine T7 or SP6 kit, Ambion, Life Technologies Darmstadt, Germany). cRNA concentrations were determined by photometry (Nanodrop, Peqlab, Erlangen, Germany) and cRNA quality was checked by agarose gel electrophoresis. […]

Another assay addresses T312S/KCNE1 (Homo sapiens, UniProt P15382+P51787, T312S). The assay can be described thus: TEVC, mutant channel T312S/KCNE1 in oocytes. Type of assay: cell-based. The settings on record: Kv7.1 T312S mutant with KCNE1.
Description: Ala scanning was previously used to identify specific residues that form the putative binding sites for chromanol and benzodiazepine derivatives that are considered to be classical pore blockers of Kv7.1 channels. Here we applied Ala scanning to multiple segments of the Kv7.1 α-subunit to identify potential AC-1 interaction sites in the extended pore region of Kv7.1/KCNE1 channels (Fig. 3a). In cases where mutation to Ala precluded channel function, alternative residues were introduced. […] Instead, most of these crucial residues cluster around a ‘window' formed uniquely in the preopen–closed state model of the Kv7.1/KCNE1 channel[33] (Fig. 3c, magenta residues). […]
as §1
TEVC measurements were performed using a TurboTec-10CD amplifier (npi Electronic, Tamm, Germany) and an ITC-16 AD/DA-interface (Instrutech Corporation, Port Washington, New York, USA). […] Tail currents were recorded at −120 mV. […]

For a further assay, the system named is T2, Kv1.5.
T2 construct: expressed in transfected cells
Put plainly: TEVC, Kv1.5 channels. The assay is classed as cell-based. The settings on record: 1 μM.

The structures appear in SMILES notation.

The IC50 is the concentration that inhibits the measured activity by half. Lower therefore signals greater potency. With `CC(C)(Oc1ccc(Cl)cc1)C(=O)NC1C2CC3CC1CC(NS(C)(=O)=O)(C3)C2` (stereo not shown) [AC-1, 2-(4-chlorophenoxy)-2-methyl-N-[5-[(methylsulfonyl)amino]tricyclo[3.3.1.13,7]dec-2-yl]-propanamide], the “effect on homomeric Kv7.1” value in the assay on homomeric Kv7.1 (1 μM) is reported as “does not affect”. Also, the “effect of different concentrations on Kv7.1 homotetramers” value with homomeric Kv7.1 (different concentrations, up to 10 μM, +40 mV) was “Lack of effect”. The concentration for half-maximal inhibition (IC50) against T312S/KCNE1 was > 50 µM. In addition, the “effect on Kv1.5” value in the assay with Kv1.5 was “does not affect”.
